The record followed here is patent US10220069B2, “Compositions and methods for treating diabetes” (THE JOHNS HOPKINS UNIVERSITY, priority 2014, dated 2019).

One assay has as its target T1, Gcgr (Mus musculus, UniProt Q61606).
T1 construct: endogenous in cells; host or cells: live mice (WT, Gcgrfl/fl, HFD-fed C57Bl/6, Lepr db/db); hepatic receptor
Description: Gcgr antagonist GAI or inactive analog GAC 60 min before ipGTT in HFD and Lepr db/db mice. It is filed as in vivo. On the procedure: Intraperitoneal glucose tolerance (ipGTT) and insulin tolerance (ipITT) tests were performed according to standard protocols (Song et al., 2013; Song et al., 2011). After 9 am-3 pm fasting, animals were administered 20% D-glucose (via ip injection), insulin 0.5 U/kg i.p. (Novolin), glucagon (100 μg/kg i.p. (Sigma)). […] The glucagon receptor antagonist GAI (N-(3-Cyano-6-(1,1-dimethylpropyl)-4,5,6,7-tetrahydro-1-benzothien-2-yl)-2-ethylbutanamide (Qureshi et al., 2004) and its non-active analogue were administered (50 mg/kg i.p. in DMSO) in HFD fed and Lepr^db/db mice 60 min before i. GTT. Intraperitoneal pyruvate converstion (1 g/kg i.p.) test (ipPCT) in ΔL-Prkar1a mice was performed in the fed state (9 am) to avoid any confounding effects of fasting-induced elevated endogenous glucagon levels. Tail-vein blood was collected at the indicated times in figures for glucose and insulin measurements. Serum insulin was measured using mouse magnetic bead panel (Millipore, Luminex). Plasma for glucagon measurements was drawn from mice in the fed state at 9 am, unless otherwise noted for fasting studies. Plasma glucagon (Alpco) and kisspeptin1 (USCN Life Sciences Inc. E92559Ra) were measured by ELISA according to manufacturer's instructions including dilution of samples.
Liver Kiss1 Upregulation is Linked to Hyperglucagonemia in DM.

Assay [1] deals with T2, Kiss1R (Mus musculus, UniProt Q91V45).
T2 construct: Mouse brain, mouse islets, insulinoma cells, and human islets express Kiss1R; from tissue; host or cells: isolated mouse pancreatic islets (WT / Kiss1Rfl/fl, C57Bl/6 background)
T2 sequence (Q91V45 whole entry): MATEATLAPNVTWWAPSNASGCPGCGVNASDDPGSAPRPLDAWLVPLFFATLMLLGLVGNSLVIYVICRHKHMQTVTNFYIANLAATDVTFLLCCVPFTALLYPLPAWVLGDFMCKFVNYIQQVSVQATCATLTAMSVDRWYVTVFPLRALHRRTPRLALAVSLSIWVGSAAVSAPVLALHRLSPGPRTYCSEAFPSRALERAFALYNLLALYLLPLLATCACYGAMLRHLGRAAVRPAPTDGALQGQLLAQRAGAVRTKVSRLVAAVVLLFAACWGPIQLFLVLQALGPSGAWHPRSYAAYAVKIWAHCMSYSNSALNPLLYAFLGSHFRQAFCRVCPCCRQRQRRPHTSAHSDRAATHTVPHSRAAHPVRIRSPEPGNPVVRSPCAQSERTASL
As to the kind of experiment: Islet perifusion assay, first and second phase GSIS. It is filed as cell-based. As to conditions: isolated mouse islets. On the procedure:
Perifusion studies were performed as previously published (Song et al., 2013; Song et al., 2011) with slight modifications. The perifusate was Krebs ringer buffer (KRB) (37 C, pH 7.4) containing 0.2% BSA fraction V, 24 mM sodium bicarbonate and was gassed with 95% air and 5% CO2. Perifusion (1 ml/min) occurred for the first 30 minutes with a KRB containing 3 mM glucose for equilibration, after which time the perifusate was collected in 1 ml fractions. After additional 10 minutes, glucose in the perifusate was increased to 10 mM. […] Insulin was measured in selected individual eluent fractions at 30, 35, 40, 42, 45, 50, 55, 60 min (Alpco ELISA). The first 10 minutes after increasing glucose was defined as first phase, the period thereafter was defined as second phase of insulin secretion. At the end of the perifusion protocol, 30 mM KCL was administered into the perifusate to depolarize β-cells. Insulin levels were normalized to total islet protein, which was spectrophotometrically determined (Eppendorf) after completion of the perifusion protocol.

For another assay, the system named is islets. As to the kind of experiment: Islets incubated 48 hours with K54: cAMP dependent, ER stress, oxidative stress and NLRP3 inflammasome markers (Table 5). As to conditions: K54 10 nM. It is filed as cell-based, mouse. On the procedure: Kisspeptin1 Causes ERS and UPR in Islets Independently of Hyperglycemia. […] Because reduction in cAMP signaling in β-cells reduces IRS2 and PDX1 and provokes ERS/UPR and apoptosis 11,12, we examined whether kisspeptin action on β-cells may provoke ERS/UPR. Islets were incubated in 10 nM […]. To control for stimulus for increased insulin biosynthesis and potential UPR response, we incubated islets at 5 and 10 mM glucose. […] Incubation at 10 mM glucose stimulated oxidative stress ERS and NLRP-I markers, but less pronounced than […] at 5 mM glucose. Treatment with […] at high (10 mM) glucose further augmented ERS/UPR, oxidative stress and NLRP3-I markers. Thus, kisspeptin treatment even at normoglycemia stimulates in islets the ERS/UPR response more potently than hyperglycemia (glucose 10 mM) and […] aggravates ERS/UPR induced by hyperglycemia only (Table 5).

Assay [2] has as its target T2, Kiss1R. Description: Glucose stimulated insulin secretion (GSIS) from cultured mouse islets, static incubation. It is filed as cell-based. Set-up: GSIS at very high kisspeptin concentration: dose or concentration left out as unconfirmed. On the procedure:
Isolated Islet Studies. Islet isolation was performed by collagenase digestion, gradient centrifugation, and three rounds of microscope-assisted manual picking of islets. Static incubation studies were conducted as previously described with 20 handpicked, equal-sized islets were studied in each group (Song et al., 2011). After overnight culture (37_C, 5% CO2, and 95% O2 in humid chamber) of isolated islets in RPMI 1640 (Mediatech) containing 5 mM glucose, 1% each Na-Pyruvate, HEPES, Penicillin/Streptomycin, and 0.2% BSA, islets were switched to either 10 or 20 mM glucose containing RPMI 1640. Where indicated, Kisspeptin-10 (0-100 nM, and […]), E4 (10 nM), or vehicle (PBS) was added. After 30 min incubation glucose concentrations, supernatant was taken for insulin measurements and pelleted islets were taken in acid ethanol (0.18M HCl in 70% ethanol) for insulin measurements in islets (ELISA, Alpco). Islet protein concentration was measured using the BCA method (Thermo Fisher).
Islet studies. Islet isolation was performed by collagenase digestion, gradient centrifugation and three rounds of microscope-assisted manual picking of islets (Song et al., 2011). Static incubation studies were conducted as previously described with 20 hand-picked equalized islets were studied in each group. Islets were cultured in RPMI 1640 medium (Invitrogen) containing 10 or 20 mM D-glucose (as indicated) and supplemented with 0.2% bovine serum albumin, 1% each Na-Pyruvate, HEPES, Penicillin/Streptomycin. After 30 min incubation glucose concentrations, supernatant was taken for insulin measurements and pelleted islets were taken in acid ethanol (0.18M HCl in 70% ethanol) for insulin measurements in islets (Alpco). Islet protein concentration was measured using the BCA method (Thermo Fisher).
Insulin secretion during static incubation. After overnight culture (37 C, 5% CO2, 95% O2 in humid chamber) of isolated islets in RPMI 1640 (Mediatech) containing 5 mM glucose, 1% each Na-Pyruvate, HEPES, Penicillin/Streptomycin and 0.2% bovine serum albumin (BSA), islets were switched to either 10 or 20 mM glucose containing RPMI 1640. […] After 30 min incubation glucose concentrations, supernatant was taken for insulin measurements and pelleted islets were taken in acid ethanol (0.18M HCl in 70% ethanol) for insulin measurements in islets (ELISA, Alpco). Islet protein concentration was measured using the BCA method (Thermo Fisher).

For assay [3], the target named is T2, Kiss1R. Description: ipGTT with ip coinjection of kisspeptin and glucose. It is filed as in vivo. On the procedure:
Intraperitoneal glucose tolerance (ipGTT) and insulin tolerance (ipITT) tests were performed according to standard protocols (Song et al., 2013; Song et al., 2011). After 9 am-3 pm fasting, animals were administered 20% D-glucose (via ip injection), insulin 0.5 U/kg i.p. (Novolin), glucagon (100 μg/kg i.p. (Sigma)). […] Plasma for glucagon measurements was drawn from mice in the fed state at 9 am, unless otherwise noted for fasting studies. Plasma glucagon (Alpco) and kisspeptin1 (USCN Life Sciences Inc. E92559Ra) were measured by ELISA according to manufacturer's instructions including dilution of samples.

Assay [4] addresses T2, Kiss1R. Description: Islet cAMP concentrations (ELISA) in response to kisspeptin. It is filed as cell-based. The protocol:
(§1) For studies with plasma incubation, a final concentration of plasma was 1% or 10% (vol/vol). […] Islets were taken in 0.18M HCL/70% ethanol to extract and measure total islet insulin content. cAMP concentrations were measured in islet extracts using ELISA (Enzo Life Sciences).

Assay [5] has as its target T3, receptor for the incretin hormone glucagon-like peptide-1 (GLP-1) (Mus musculus, UniProt O35659).
T3 construct: from tissue; host or cells: isolated mouse pancreatic islets (Kiss1Rfl/fl and Panc-ΔKiss1R)
T3 sequence (O35659 22-463): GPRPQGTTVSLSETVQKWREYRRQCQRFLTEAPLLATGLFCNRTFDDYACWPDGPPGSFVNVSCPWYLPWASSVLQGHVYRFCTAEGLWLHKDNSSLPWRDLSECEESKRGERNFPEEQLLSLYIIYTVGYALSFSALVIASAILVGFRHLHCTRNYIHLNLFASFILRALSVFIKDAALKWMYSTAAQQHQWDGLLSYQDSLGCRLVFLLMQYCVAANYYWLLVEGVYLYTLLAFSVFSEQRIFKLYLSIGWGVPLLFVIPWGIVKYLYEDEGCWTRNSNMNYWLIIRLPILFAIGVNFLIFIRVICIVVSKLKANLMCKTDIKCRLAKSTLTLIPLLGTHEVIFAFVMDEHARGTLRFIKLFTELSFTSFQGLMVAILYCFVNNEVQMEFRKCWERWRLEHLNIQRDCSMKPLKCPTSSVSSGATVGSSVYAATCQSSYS
As to the kind of experiment: Islet cAMP synthesis in response to exendin-4. It is filed as cell-based. The protocol: as §1

Setting [6] is: Kiss1Rfl/fl and Panc-DKiss1R islets.

T1 sequence (Q61606 27-485): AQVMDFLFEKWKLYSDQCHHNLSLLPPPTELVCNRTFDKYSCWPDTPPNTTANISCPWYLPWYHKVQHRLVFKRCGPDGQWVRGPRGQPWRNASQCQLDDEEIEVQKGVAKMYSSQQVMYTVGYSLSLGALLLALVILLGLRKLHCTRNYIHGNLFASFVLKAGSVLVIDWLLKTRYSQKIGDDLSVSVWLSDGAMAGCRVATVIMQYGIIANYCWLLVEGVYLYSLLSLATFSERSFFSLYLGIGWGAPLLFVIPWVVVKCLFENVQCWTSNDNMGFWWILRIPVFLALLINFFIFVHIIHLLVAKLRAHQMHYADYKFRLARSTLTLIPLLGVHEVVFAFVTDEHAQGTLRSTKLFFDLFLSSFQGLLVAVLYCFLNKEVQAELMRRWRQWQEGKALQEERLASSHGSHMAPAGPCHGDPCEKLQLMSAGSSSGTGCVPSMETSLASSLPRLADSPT

For `CCC(CC)C(=O)Nc1sc2c(c1C#N)CCC(C(C)(C)CC)C2` (stereo not drawn) [GAI, N-(3-Cyano-6-(1,1-dimethylpropyl)-4,5,6,7-tetrahydro-1-benzothien-2-yl)-2-ethylbutanamide], at Gcgr (HFD and Lepr db/db mice), the “liver Kiss1 expression” value is listed as “reduction”; the “liver gluconeogenic gene expression (Pparg1a, Src1, G6P, Pck1 mRNA)” value is reported as “reduction”; the “liver pCREB” value is “corresponding reductions”. In addition, at Gcgr (HFD and Lepr db/db mice, in vivo ChIP), the “CREB occupancy of CRE 1 and 2 in the Kiss1 promoter” value is given as “reduces CREB occupancy”. Besides, the “basal glycemia and GT” value on Gcgr (HFD and Lepr db/db mice, single dose 50 mg/kg i.p. 60 min before ipGTT, versus GAC) is given as “improved basal glycemia as well as GT”. Also, on Gcgr (HFD fed and Lepr db/db mice, fed state, 60 min after treatment), the “circulating plasma glucagon levels” value is “remained unchanged”.

On to “Gly-Thr-Ser-Leu-Ser-Pro-Pro-Pro-Glu-Ser-Ser-Gly-Ser-Arg-Gln-Gln-Pro-Gly-Leu-Ser-Ala-Pro-His-Ser-Arg-Gln-Ile-Pro-Ala-Pro-Gln- Gly-Ala-Val-Leu-Val-Gln-Arg-Glu- Lys-Asp-Leu-Pro-Asn-Tyr-Asn-Trp-Asn-Ser-Phe-Gly-Leu-Arg-Phe-NH2 [K54]”, for which the “E4-potentiated GSIS, first and second phase” value with Kiss1R [1] is “suppressed”. Also, the “first (0-10 min after glucose stimulation) and second phases of GSIS” value with Kiss1R [1] (10 mM glucose) is listed as “suppressed”. In addition, in the assay on islets (Hyperglycemia Glucose 10 mM), the “ATF5 (NLRP3 Inflammasome)” value is reported as 1.9 ± 0.4, the “CHOP (ER stress)” value is on record as 2.2 ± 0.5, the “Catalase (Oxidative stress)” value is listed as 8.8 ± 0.5 and the “IL-1β (NLRP3 Inflammasome)” value turned out to be 1.9 ± 0.2. For the same molecule, in the assay on islets (Hyperglycemia Glucose 10 mM), the “IRS2 (cAMP dependent)” value worked out at 0.6 ± 0.2, the “PDI (ER stress)” value was found to be 1.8 ± 0.3, the “PDX1 (cAMP dependent)” value amounted to 0.5 ± 0.3 and the “SOD1 (Oxidative stress)” value is 3.2 ± 0.3. Moreover, in the assay with islets (Hyperglycemia Glucose 10 mM), the “SOD2 (Oxidative stress)” value turned out to be 2.4 ± 0.4, the “Spliced XBP-1 (ER stress)” value stood at 2.1 ± 0.4, the “TXNIP (NLRP3 Inflammasome)” value came to 5.5 ± 0.3 and the “Total XBP-1 (ER stress)” value was determined as 1.5 ± 0.3. Further, in the assay on islets (Normoglycemia Glucose 5 mM), the “ATF5 (NLRP3 Inflammasome)” value came to 1.4 ± 0.4, the “CHOP (ER stress)” value was determined as 1.9 ± 0.4, the “Catalase (Oxidative stress)” value is given as 6.2 ± 0.6 and the “IL-1β (NLRP3 Inflammasome)” value came out at 1.7 ± 0.3. Besides, in the assay with islets (Normoglycemia Glucose 5 mM), the “IRS2 (cAMP dependent)” value stood at 0.5 ± 0.3, the “PDI (ER stress)” value was 1.4 ± 0.4, the “PDX1 (cAMP dependent)” value amounted to 0.6 ± 0.2 and the “SOD1 (Oxidative stress)” value was determined as 2.1 ± 0.4. For the same molecule, in the assay with islets (Normoglycemia Glucose 5 mM), the “SOD2 (Oxidative stress)” value was found to be 1.9 ± 0.3, the “Spliced XBP-1 (ER stress)” value is listed as 1.8 ± 0.5, the “TXNIP (NLRP3 Inflammasome)” value is on record as 4.8 ± 1.1 and the “Total XBP-1 (ER stress)” value is 1.4 ± 0.3. In addition, the “GSIS at very high kisspeptin concentration” value in the assay with Kiss1R [2] (setting [6]) was “GSIS stimulation from both Kiss1Rfl/fl and Panc-DKiss1R islets”. In the assay with Kiss1R [2] (Kiss1Rfl/fl mouse islets, serum-free media, 10 or 20 mM glucose), the “lowest concentration suppressing GSIS” value is recorded as 0.1 nM. Besides, the “GSIS from Panc-DKiss1R islets” value with Kiss1R [2] (islets lacking Kiss1R, nanomolar concentrations) was “impervious to K54-mediated GSIS suppression”. In addition, the “E4-potentiated GSIS” value with Kiss1R [2] (mouse islets cultured at 10 mM glucose, static incubation) is recorded as “dose-dependently suppressed”. Besides, the “GSIS from Kiss1Rfl/fl (WT) mouse islets” value with Kiss1R [2] (static incubation, nanomolar concentrations (0-100 nM), 10 or 20 mM glucose) is listed as “suppressed GSIS in a dose-dependent manner”. Further, the “in vivo GSIS in control (Kiss1rfl/fl, WT) mice” value in the assay with Kiss1R [3] (10 nmol ip with glucose during ipGTT) is given as “suppressed GSIS”. Further, the “in vivo GSIS in Panc-DKiss1R mice” value in the assay with Kiss1R [3] (10 nmol ip, mice lacking pancreas Kiss1R) is recorded as “did not affect GSIS”. For the same molecule, the “glucose tolerance in WT mice” value with Kiss1R [3] (acute administration, 10 nmol ip) is reported as “impaired glucose tolerance”. In addition, the “islet cAMP production in response to exendin-4 (E4)” value with Kiss1R [4] (Kiss1Rfl/fl (WT) islets) is given as “impaired islet cAMP production”. Also, the “islet cAMP concentrations” value in the assay with Kiss1R [4] (WT mouse islets, 10 mM glucose, 10 nM) is “lower cAMP concentrations”. In addition, the “baseline and E4-induced cAMP concentrations in Panc-DKiss1R islets” value in the assay with Kiss1R [4] (islets lacking Kiss1R) was “not affected”.

As for exendin-4 [E4], in assay [5] (setting [6]), the “islet cAMP synthesis” value was “stimulates cAMP synthesis”. In addition, the “reversal of K10-reduced cAMP production” value in assay [5] (isolated WT mouse islets treated with K10) is “partially reversed”.
